Results reported in patent publication US20230172925A1, “SKIN-CARE COMPOSITIONS AND USES THEREOF” (AHAVA - DEAD SEA LABORATORIES LTD., priority 2019, published 2023).

Experiments:
Format in all cases: cell-based
[1] = tested on: MatTek EFT-400 full thickness tissues; assay: DNA microarray gene expression in skin equivalents, complex vs individual ingredients (Example 5); set-up: key to Genes up and downregulation in pathway: + = up-regulated; − = down-regulated; *non-significant down-regulation, thus, regulation is considered as non-affected (NA); conditions: for Up-Regulated Genes (number): cut off of two fold change of adjusted Fold Change, 48 hours
Protocol: MatTek EFT-400 full thickness tissues were used as the model for this study. Upon arrival, the full thickness tissues were placed into 6 wells plates with 2 ml of culture media and incubated overnight at 37±2° C. and 5±1% CO2. After this overnight incubation the culture media was replaced with 5 ml of fresh media and the tissues were treated topically with the test materials prepared in distilled water as follows:
After the application of the test materials the tissues were incubated at 37±2° C. and […] for 48 hours.
At the end of the treatment period, the tissues were rinsed and transferred to a 2 ml centrifuge tube containing 700 μl of lysis buffer and homogenized. After centrifuging at 14,000×g for 10 minutes at 4° C. the supernatant from each tube was transferred to a new 1.5 ml tube and mixed with and equal volume of 64% ethanol. After mixing the solutions was transferred to glass fiber filter cartridges and the cartridges were loaded into a 1.5 ml collection tube centrifuged for 1 minute at 14,000 RPM in a Napco 2002 Microcentrifuge with a DA-6T fixed angle rotor. The flow through was discarded and any remaining mixture was loaded into the filter cartridge and the centrifugation process was repeated until all of the mixture had been processed. The filter was then washed to remove any residual cellular debris from the RNA bound to the glass fibers by subsequently applying 700 μl of wash solution 1 (1 time) and 500 μl of wash solution 2 (2 times) to the filter cartridge and centrifuging at 14,000 RPM for 1 minute to pass each wash through the cartridge. After each wash, the flow through was discarded. After the final wash one final spin was performed without wash solution to remove any residual wash solution in the filter cartridge. The RNA bound to the glass fibers within the cartridge was then eluted by applying 40 μl of TE buffer (10 mM Tris-HCl, 1 mM EDTA, preheated to 70-80° C.) to the cartridge and centrifuging the cartridge in a new collection tube at 14,000 RPM for one minute. The elution process was then repeated a second time using 20 μl of TE buffer.
First Strand cDNA Synthesis: To start the first strand synthesis, 10 μl of total RNA for each sample was added to a 600 μl PCR tube and the total volume of liquid in the tube will be adjusted to 11 μl with DEPC H2O. Next, 1 μl of T7 Oligo(dT) primer was added and the tube was incubated in a water bath at 70±2° C. for 10 minutes to denature the RNA and then placed on ice to allow the primers to anneal to the poly A ends of the mRNA. After cooling 2 μl of 10× first strand buffer, 1 μl of RNAse inhibitor and 4 μl of dNTP mix were added to each tube, and the tube was incubated at 42° C. in a hybridization oven (Labnet Problot). As soon as the tube was heated, 1 μl of Reverse Transcriptase was added and the tubes were returned to 42±2° C. for 2 hours. At the end of the two hours the tubes were briefly centrifuged to collect all of the fluid at the bottom of the tube and then placed on ice.
Two tubes were prepared for the labeling process, one for Cy3 labeling (green) and one for Cy5 labeling (red). To the Cy3 tube 2 μg of aRNA prepared from the untreated/control sample (the actual color assignment for each sample is not important, but for consistency Cy3 is normally used for the untreated sample) and enough DEPC H2O was added to bring the total volume up to 4 μl. To the Cy5 tube 2 μg of aRNA prepared from the sample treated with the test material and enough DEPC H2O was added to bring the total volume up to 4 μl. To both tubes 5 μl of ASAP labeling buffer was added along with 1 μl of the specific dye for the tube (Cy3 or Cy5). The tubes were incubated for 15 minutes at 85±2° C. At the end of the 15 minutes the tubes were placed on ice to cool them and then add 2.5 μl of ASAP stop solution was added to each tube.

IL-1α [2] = assay: Human skin organ culture with UVB stressor, IL-1α secretion in the medium; conditions: SDS 10% applied once, incubation of 24 hours
Protocol: (§1) Topical exposure till 48 hours in total (24 hr recovery following topical application+24 hr after exposure to UVB irradiation) with UVB radiation as stressor on human skin model
(§2) The following general procedure was used in the study:
(§3) Day 1: Topical application of 3 μl of each sample solution on the epidermis of each skin explant. Incubate for 24 hours. SDS 10% was applied only once, and was not farther irradiated with UVB.
(§4) Day 2: Skin explants were washed once with PBS and irradiated with UVB lamp at 200 mJ/cm2. After radiation it was incubated for 30 min and then topically apply each treatment (sample solution) again. Control was not irradiated under UVB light. UVB radiated control was without any treatment except radiation.
(§5) Day 3: Viability and Caspase3 activity were measured for the epidermis layer. The medium was collected for cytokines test.
FIG. 5 illustrates the IL-1α secretion results in the medium as observed with 3 to 4 repetition of the tests. In FIG. 5 the IL-1α secretion of the irradiated sample “UVB” was selected as 100% and it equals 8.1±1.0 pg/ml.

IL-1α [3] = assay: Human skin organ culture without UVB stressor, IL-1α secretion; conditions: no UVB, SDS 10% applied once
Protocol: (§6) Topical Exposure Till 96 Hours without External UVB Radiation as Stressor on Human Skin Model
(§7) Day 1: Topical application of 3 μl of each solution on the epidermis of each skin explant. Incubate for 24 hours. (SDS Irritation control: topical application of 3 ul SDS 10% was applied on the skin model at day 1 only. The rest of the days samples were untouched).
(§8) Day 2: Topical application of 3 μl of each solution on the epidermis of each skin explant. Incubate for 24 hours in fresh medium (medium was not collected). (UVB control: after 24 hours incubation with 3 μl H2O skin was irradiated with 200 mJ/cm2 UVB. The rest of the experiment days sample were topically applied with H2O, as control).
(§9) Day 3: Topical application of 3 μl of each solution on the epidermis of each skin explant. Incubate for 24 hours in fresh medium (medium was collected)—48 hours of total topical incubation.
(§10) Day 4: Topical application of 3 μl of each solution on the epidermis of each skin explant. Incubate for 24 hours in fresh medium (medium was collected)—72 hours of total topical incubation.
(§11) Day 5: Topical application of 3 μl of each solution on the epidermis of each skin explant. Incubate for 24 hours in fresh medium (medium was collected)—96 hours of total topical incubation. MTT assay was performed.
FIG. 9A illustrates the IL-1α secretion results in the medium. In FIG. 9A the IL-1α secretion of the H2O sample was used as a control (9.0±0.7 pg/ml […]) for each time point. FIG. 9B is a magnification of FIG. 9A.

TNFα [4] = assay: Human skin organ culture with UVB stressor, TNFα secretion in the medium; conditions: SDS 10%, one treatment, not irradiated
Protocol: as §1, §2, §3, §4, §5
FIG. 4 illustrates the TNFα secretion results in the medium as observed with 2 to 4 repetition of the tests. In FIG. 4 the TNFα secretion of the irradiated sample “UVB” was selected as 100% and it equals 53±30 pg/ml.

TNFα [5] = assay: Human skin organ culture without UVB stressor, TNFα secretion; conditions: no UVB; SDS 10% applied once; after incubation of 48 hours
Protocol: as §6, §7, §8, §9, §10, §11
FIG. 8 illustrates the TNFα secretion tested results. In FIG. 8 the TNFα secretion of the H2O sample was used as a control (0.35±0.05 pg/ml) for each time point.

[6] = tested on: human skin explants (epidermis); assay: Human skin organ culture with UVB stressor, viability by MTT assay; conditions: SDS 10% applied only once, not irradiated, 24 hours of incubation
Protocol: as §1, §2, §3, §4, §5
FIG. 2 illustrates a flow diagram of topical exposure/treatment till 48 hours, 24 hr recovery following topical application +24 hr after exposure to UVB irradiation) with UVB radiation as stressor on human skin model experiment. In the Experiment the SDS irritation control sample was a skin explant that was topical applied with 3 μl SDS 10% solution at day 1 only.
The viability of the various skin explants was measured by the 5-dimethylthiazol-2-yl]-2,5-diphenyl tetrazolium bromide (MTT) assay.

[7] = tested on: human skin explants (epidermis); assay: Human skin organ culture without UVB stressor, topical exposure till 96 hours, viability by MTT assay; conditions: no UVB; SDS 10% applied only once; after 96 hours
Protocol: as §6, §7, §8, §9, §10
Day 5: Topical application of 3 μl of each solution on the epidermis of each skin explant. Incubate for 24 hours in fresh medium (medium was collected)—96 hours of total topical incubation. MTT assay was performed. […]
The viability of the various skin explants was measured by the MTT assay.

[8] = KEGG_NUCLEOTIDE_EXCISION_REPAIR
[9] = KEGG_SIGNALING_PATHWAYS_REGULATING_PLURIPOTENCY_OF_STEM_CELLS
[10] = WIKI_ASSEMBLY_OF_COLLAGEN_FIBRILS_AND_OTHER_MULTIMERIC_STRUCTURES

Question: What does the source list for `NC(=O)c1cccnc1` [Niacinamide]?
Answer: z-score ([1]; KEGG_APOPTOSIS): −0.6704; z-score ([1]; KEGG_BASE_EXCISION_REPAIR): 0.1343; Genes up and downregulation in pathway ([1]; KEGG_CELL_CYCLE): −; z-score ([1]; KEGG_CELL_CYCLE): −1.1781; z-score ([1]; KEGG_CIRCADIAN_RHYTHM_MAMMAL): 0.1529; z-score ([1]; KEGG_FATTY_ACID_BIOSYNTHESIS): −1.579; z-score ([1]; KEGG_FATTY_ACID_DEGRADATION): −0.3119; z-score ([1]; KEGG_GLYCOLYSIS_GLUCONEOGENESIS): 0.7976; z-score ([1]; KEGG_NF_KAPPA_B_SIGNALING_PATHWAY): −0.7978; Genes up and downregulation in pathway [1, 8]: −; z-score [1, 8]: −0.2743; z-score ([1]; KEGG_OXIDATIVE_PHOSPHORYLATION): 0.1959; Genes up and downregulation in pathway ([1]; KEGG_P53_SIGNALING_PATHWAY): −; z-score ([1]; KEGG_P53_SIGNALING_PATHWAY): −0.04133; z-score ([1]; KEGG_PROTEASOME): −1.4338; z-score ([1]; KEGG_RETINOL_METABOLISM): 0.7797; Genes up and downregulation in pathway [1, 9]: −; z-score [1, 9]: −1.5828; z-score ([1]; KEGG_SPHINGOLIPID_METABOLISM): −1.4272; z-score ([1]; KEGG_TH1_AND_TH2_CELL_DIFFERENTIATION): −0.6106; z-score ([1]; KEGG_TIGHT_JUNCTION): 1.7592; z-score ([1]; KEGG_TNF_SIGNALING_PATHWAY): −1.6603; z-score ([1]; KEGG_T_CELL_RECEPTOR_SIGNALING_PATHWAY): −0.515; z-score ([1]; KEGG_WNT_SIGNALING_PATHWAY): −0.8093; z-score ([1]; WIKI_ACTIVATION_OF_MATRIX_METALLOPROTEINASES): 1.5758; Genes up and downregulation in pathway [1, 10]: −; z-score [1, 10]: −0.4818; z-score ([1]; WIKI_COLLAGEN_BIOSYNTHESIS_AND_MODIFYING_ENZYMES): 1.0367; z-score ([1]; WIKI_COLLAGEN_DEGRADATION): 0.7489; z-score ([1]; WIKI_DEGRADATION_OF_THE_EXTRACELLULAR_MATRIX): 0.02517; Genes up and downregulation in pathway ([1]; WIKI_ELASTIC_FIBRE_FORMATION): −; z-score ([1]; WIKI_ELASTIC_FIBRE_FORMATION): −1.0086; z-score ([1]; WIKI_ELECTRON_TRANSPORT_CHAIN_IN_MITOCHONDRIA): −0.6757; z-score ([1]; WIKI_EXTRACELLULAR_MATRIX_ORGANIZATION): 0.2738; Genes up and downregulation in pathway ([1]; WIKI_KERATINIZATION): +; regulation of WIKI_KERATINIZATION pathway (Z-Score heatmap, in words) ([1]; WIKI_KERATINIZATION): up-regulated; z-score ([1]; WIKI_KERATINIZATION): 7.5403; z-score ([1]; WIKI_NRF2_PATHWAY): 2.1898; z-score ([1]; WIKI_RESPIRATORY_ELECTRON_TRANSPORT_ATP_SYNTHESIS): −0.7571; z-score ([1]; WIKI_SPHINGOLIPID_METABOLISM): −0.1492; Up-Regulated Genes (number) ([1]; 19254 genes evaluated): 133; Up-Regulated Genes (number) ([1]; second column of Table 6): 70

Question: Which IL-1α secretion (IL-1α [2]) does the source give for `CCCCCCCCCCCCOS(=O)(=O)[O-].[Na+]` [SDS] here?
Answer: The IL-1α secretion was “dramatically increased”.

Question: And the “IL-1α secretion level, times of the control value” (IL-1α [3]; after 48 hours)?
Answer: Its value is 6.5 times of the control value.

Question: And the “IL-1α secretion level, times of the control value” (IL-1α [3]; after 72 hours and 96 hours)?
Answer: The value was 10.6 times of the control value.

Question: What about the TNFα secretion (TNFα [4]) of the same molecule?
Answer: The TNFα secretion was “significant reduction”.

Question: And the TNFα secretion (TNFα [5])?
Answer: Its TNFα secretion is “below the detection lever”.

Question: What about the “viability (MTT) of epidermis” value [6] of the same molecule?
Answer: The value was “caused epidermis death”.

Question: What about the “epidermis viability (MTT), % of the control value” [7] of the same molecule?
Answer: Its value is 15%.
